{"source": "patent US10780061B2", "about": "“Composition comprising farnesol and use thereof” (Daegu Gyongbuk Institute of Science and Technology, priority 2014, dated 2020)", "format_in_all_cases": "cell-based", "key": {"[1]": {"test_system": "PARIS-overexpressing C2C12 cells", "assay": "Differentiation of PARIS-overexpressing myoblasts (Myh immunostaining)", "experimental": "In C2C12 myoblasts, a PARIS gene expression vector (pCMV-Tag2A, Stratagene) is transiently expressed, followed by immunoblotting and immunostaining analysis. PARIS gene is a full length cDNA of human PARIS gene having a nucleotide sequence of SEQ ID NO: 9. […] After induction of differentiation of PARIS-overexpressing C2C12 cells for 3 days, immunostaining for Myh expression is performed. To induce the differentiation, cells are cultured in DMEM containing 2% horse serum and 0.1 μM farnesol dissolved in DMSO for 48 hours. A control group is cultured in the same manner as above, except that only DMSO is added. Other culture conditions are the same as those described in Section 1 of Example 2. As shown in panel (A) of FIG. 4F, PARIS overexpression decreases Myh-positive myotube formation, and reduced myotube formation is recovered by farnesol treatment. In (A) of FIG. 4F, Control represents myoblasts introduced with no PARIS gene expression vector, and ‘PARIS’ represents myoblasts introduced with a PARIS gene expression vector. In these experiments, blue color staining indicates nuclei, and red color staining indicates stained myh and also myotubes. The colors are not shown in panel (A) of FIG. 4F, but the difference in the relative amount of red color stained area is quantified in panel (B) of FIG. 4F, wherein pCMV represents the control myoblasts without a PARIS gene expression vector. […]"}, "[2]": {"target": "T1, PARIS (Mus musculus, UniProt Q3U133)", "T1 construct": "endogenous in cells; host or cells: C2C12 myoblasts", "assay": "Immunoprecipitation analysis for PARIS farnesylation in myoblasts", "experimental": "C2C12 cells are cultured in the presence of farnesol, and cell lysate is subjected to immunoprecipitation. As an experimental group, C2C12 cells are cultured in the presence of 10 uM farnesol for 24 hours, and also cultured in the differentiation medium described in Section 2 of Example 1 for 24 hours by adding 10 uM farnesol according to a culturing schedule, that is, at 0 day, 1 day, 2 days, 3 days, and 4 days (hereinafter, also referred to as ‘D0, D1, D2, D3 and D4’ or ‘D0-D04’). Next, a cell lysis buffer (20 mM Tris-HCl, pH 8, 150 mM NaCl, 1% Triton X, Proteinase Inhibitor) is added to the harvested cells, and cell lysis is allowed under refrigeration for 60 minutes, followed by centrifugation at 13,000 rpm for 20 minutes. A supernatant is removed by 50 uL of protein A/G-agarose in advance, and a target protein antibody is reacted for 12 hours or longer. The resultant is mixed with protein A/G-agarose beads, and stirred for 1 hour. The beads are washed with a cold lysis buffer at a low concentration three times to remove abnormal protein binding. The obtained sample is mixed with a 2×SDS sample buffer (0.125 M Tris-HCl (pH 6.8), 4% SDS, 10% β-mercaptoethanol, 18% glycerol, and 0.1% Bromophenol Blue), and then electrophoresed on 8% SDS-PAGE. […]"}, "[3]": {"test_system": "C2C12 myoblasts introduced with FLAG-PARIS WT or C631S", "assay": "Differentiation of PARIS WT or PARIS C631S gene-introduced C2C12 myoblasts (Mhc immunostaining)", "conditions": "C2C12, 0.1 M farnesol, 24 hours", "experimental": "Additionally, it is examined whether the presence of farnesol affects farnesylation of PARIS protein in skeletal muscles. To this end, the FLAG-PARIS wild-type (WT) gene or the FLAG-PARIS C631S mutant (hereinafter, referred to as MT) gene is overexpressed in C2C12 myoblasts, and then farnesol is treated thereto, followed by measurement of differentiation. The muscles of mice are introduced with AAV-GFP, AAV-PARIS WT or AAV-PARIS C631S viral vector, and mice are bred by feeding with farnesol, followed by measurement of mitochondrial enzyme activity.\nIn FIG. 5D, C2C12 myoblasts are introduced with FLAG-PARIS wild-type (WT) gene or FLAG-PARIS C631S mutant (hereinafter, referred to as “MT”) gene, and cultured in the presence of […] farnesol in DMEM containing 10% FBS for 24 hours, followed by measurement of muscle differentiation and mitochondrial enzyme activity. Muscle differentiation is examined by immunostaining using a muscle differentiation marker, Mhc. […] The percentage of Mhc-negative nuclei indicates the cells showing no formation of red-colored myotube among the nucleus-stained myoblasts of A."}}}
{"compound": "CC(C)=CCC/C(C)=C/CC/C(C)=C/CO", "note": "[farnesol, (2E,6E)-3,7,11-trimethyldodeca-2,6,10-trien-1-ol]", "values": [{"measurement": "red color (Myh) stained area, control cells without PARIS vector", "setting": "[1]; CONTROL (pCMV) C2C12, 0.1 μM farnesol vs DMSO", "value": "‘CONTROL’ cell treated with DMSO is smaller than that of ‘CONTROL’ cell treated with Farnesol"}, {"measurement": "Myh-positive myotube formation reduced by PARIS overexpression", "setting": "[1]; PARIS-overexpressing C2C12, 0.1 μM farnesol", "value": "recovered"}, {"measurement": "farnesylated PARIS level", "setting": "[2]; 10 uM farnesol, D0-D4", "value": "further increases"}, {"measurement": "PGC-1α expression", "setting": "[2]; 10 uM farnesol-treated myoblasts", "value": "increased"}, {"measurement": "percentage of Mhc-negative nuclei, FLAG-PARIS C631S", "setting": "[3]", "value": "does not significantly decrease"}, {"measurement": "percentage of Mhc-negative nuclei, FLAG-PARIS WT", "setting": "[3]", "value": "significantly decreases"}]}
